In PubChem BioAssay AID248 (DTP/NCI, 2004):
Values joined by “and” are separate entries in the source; they are usually repeats but may differ in a detail not shown here. Equal values may be shown once. Inconclusive results and toxic doses are left out.

System: L1210 leukemia ip in BDF1 mice, survival T/C
Assay: NCI In Vivo Anticancer Drug Screen. Data for tumor model L1210 Leukemia (intraperitoneal) in B6D2F1 (BDF1) mice
Conditions: endpoint: mean survival time, higher = longer survival
Outline: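 Ratio derived from survival: compound-dosed mice over vehicle-dosed mice, all bearing a transplantable tumor.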

O=c1cnn(C2OC(CO)C(O)C2O)c(=O)[nH]1 (stereo not given)
T/C (dose: 12.5 mg/kg/injection, schedule: Q#A X Z (ip), vehicle: saline): 160 % of control | T/C (dose: 25.0 mg/kg/injection, schedule: Q01DX Z (im), vehicle: saline): 150 % of control | T/C (dose: 25.0 mg/kg/injection, schedule: Q01DX Z (ip), vehicle: methylcellulose (MC)): 120 % of control | T/C (dose: 25.0 mg/kg/injection, schedule: Q01DX Z (ip), vehicle: saline): 156 % of control | T/C (dose: 25.0 mg/kg/injection, schedule: Q#A X Z (ip), vehicle: saline): 156 % of control | T/C (dose: 32.0 mg/kg/injection, schedule: Q01DX009 (oral), vehicle: saline): 151 % of control | T/C (dose: 50.0 mg/kg/injection, schedule: Q01DX010 (ip), vehicle: saline): 120 % of control | T/C (dose: 50.0 mg/kg/injection, schedule: Q01DX Z (im), vehicle: saline): 156 % of control | T/C (dose: 50.0 mg/kg/injection, schedule: Q01DX Z (ip), vehicle: methylcellulose (MC)): 120 % of control | T/C (dose: 50.0 mg/kg/injection, schedule: Q01DX Z (ip), vehicle: saline): 159 % of control | T/C (dose: 50.0 mg/kg/injection, schedule: Q01DX Z (oral), vehicle: other): 158 % of control | T/C (dose: 50.0 mg/kg/injection, schedule: Q#A X Z (ip), vehicle: saline): 164 % of control | T/C (dose: 75.0 mg/kg/injection, schedule: Q01DX005 (ip), vehicle: saline): 112 % of control | T/C (dose: 88.0 mg/kg/injection, schedule: Q01DX Z (ip), vehicle: methylcellulose (MC)): 122 % of control | T/C (dose: 100.0 mg/kg/injection, schedule: Q01DX010 (ip), vehicle: saline): 123 % of control | T/C (dose: 100.0 mg/kg/injection, schedule: Q01DX Z (ip), vehicle: methylcellulose (MC)): 116 % of control | T/C (dose: 100.0 mg/kg/injection, schedule: Q01DX Z (oral), vehicle: saline): 151 % of control | T/C (dose: 100.0 mg/kg/injection, schedule: Q#A X Z (ip), vehicle: saline): 176 % of control | T/C (dose: 128.0 mg/kg/injection, schedule: Q03HX016 (oral), vehicle: saline): 116 % of control | T/C (dose: 132.0 mg/kg/injection, schedule: Q01DX Z (ip), vehicle: methylcellulose (MC)): 117 % of control | T/C (dose: 150.0 mg/kg/injection, schedule: Q01DX005 (ip), vehicle: saline): 115 % of control | T/C (dose: 150.0 mg/kg/injection, schedule: Q01DX Z (oral), vehicle: saline): 172 % of control | T/C (dose: 150.0 mg/kg/injection, schedule: Q## X003 (ip), vehicle: saline): 105 % of control | T/C (dose: 152.0 mg/kg/injection, schedule: Q## X024 (ip), vehicle: saline): 123 % of control | T/C (dose: 180.0 mg/kg/injection, schedule: Q01DX009 (ip), vehicle: saline): 120 % of control | T/C (dose: 200.0 mg/kg/injection, schedule: Q#A X Z (ip), vehicle: saline): 176 % of control | T/C (dose: 256.0 mg/kg/injection, schedule: Q03HX016 (ip), vehicle: saline): 153 % of control | T/C (dose: 300.0 mg/kg/injection, schedule: Q01DX005 (ip), vehicle: saline): 118 % of control | T/C (dose: 300.0 mg/kg/injection, schedule: Q01DX009 (oral), vehicle: saline): 123 % of control | T/C (dose: 300.0 mg/kg/injection, schedule: Q01DX Z (oral), vehicle: saline): 159 % of control | T/C (dose: 300.0 mg/kg/injection, schedule: Q03DX Z (ip), vehicle: other): 119 % of control | T/C (dose: 300.0 mg/kg/injection, schedule: Q## X003 (ip), vehicle: saline): 106 % of control | T/C (dose: 304.0 mg/kg/injection, schedule: Q## X024 (ip), vehicle: saline): 151 % of control | T/C (dose: 350.0 mg/kg/injection, schedule: Q01DX001 (ip), vehicle: saline): 109 % of control | T/C (dose: 350.0 mg/kg/injection, schedule: Q07DX Z (ip), vehicle: saline): 109 % of control | T/C (dose: 400.0 mg/kg/injection, schedule: Q01DX Z (oral), vehicle: other): 191 % of control | T/C (dose: 400.0 mg/kg/injection, schedule: Q#A X Z (ip), vehicle: saline): 158 % of control | T/C (dose: 512.0 mg/kg/injection, schedule: Q03HX016 (ip), vehicle: saline): 162 % of control | T/C (dose: 512.0 mg/kg/injection, schedule: Q03HX016 (oral), vehicle: saline): 158 % of control | T/C (dose: 600.0 mg/kg/injection, schedule: Q01DX001 (ip), vehicle: saline): 101 % of control | T/C (dose: 600.0 mg/kg/injection, schedule: Q01DX001 (oral), vehicle: saline): 109 % of control | T/C (dose: 600.0 mg/kg/injection, schedule: Q01DX001 (sc), vehicle: saline): 106 % of control | T/C (dose: 600.0 mg/kg/injection, schedule: Q01DX005 (ip), vehicle: saline): 121 % of control | T/C (dose: 600.0 mg/kg/injection, schedule: Q01DX009 (oral), vehicle: saline): 118 % of control | T/C (dose: 600.0 mg/kg/injection, schedule: Q01DX Z (oral), vehicle: saline): 154 % of control | T/C (dose: 600.0 mg/kg/injection, schedule: Q## X002 (ip), vehicle: saline): 98 % of control | T/C (dose: 600.0 mg/kg/injection, schedule: Q## X003 (ip), vehicle: saline): 107 % of control | T/C (dose: 600.0 mg/kg/injection, schedule: Q## X008 (ip), vehicle: saline): 119 % of control | T/C (dose: 600.0 mg/kg/injection, schedule: Q## X016 (ip), vehicle: saline): 117 % of control | T/C (dose: 700.0 mg/kg/injection, schedule: Q01DX001 (ip), vehicle: saline): 113 % of control and 116 % of control | T/C (dose: 700.0 mg/kg/injection, schedule: Q07DX Z (ip), vehicle: other): 111 % of control | T/C (dose: 700.0 mg/kg/injection, schedule: Q07DX Z (ip), vehicle: saline): 113 % of control | T/C (dose: 800.0 mg/kg/injection, schedule: Q01DX009 (ip), vehicle: saline): 110 % of control | T/C (dose: 800.0 mg/kg/injection, schedule: Q01DX Z (im), vehicle: saline): 151 % of control | T/C (dose: 800.0 mg/kg/injection, schedule: Q## X000 (other), vehicle: other): 107 % of control | T/C (dose: 800.0 mg/kg/injection, schedule: Q#A X Z (ip), vehicle: saline): 101 % of control | T/C (dose: 1024.0 mg/kg/injection, schedule: Q03HX016 (ip), vehicle: saline): 176 % of control | T/C (dose: 1024.0 mg/kg/injection, schedule: Q03HX016 (oral), vehicle: saline): 161 % of control | T/C (dose: 1200.0 mg/kg/injection, schedule: Q01DX001 (oral), vehicle: saline): 112 % of control | T/C (dose: 1200.0 mg/kg/injection, schedule: Q01DX001 (sc), vehicle: saline): 110 % of control | T/C (dose: 1200.0 mg/kg/injection, schedule: Q01DX009 (ip), vehicle: saline): 98 % of control | T/C (dose: 1200.0 mg/kg/injection, schedule: Q01DX009 (oral), vehicle: saline): 100 % of control | T/C (dose: 1200.0 mg/kg/injection, schedule: Q01DX009 (sc), vehicle: saline): 94 % of control | T/C (dose: 1200.0 mg/kg/injection, schedule: Q01DX Z (oral), vehicle: saline): 104 % of control | T/C (dose: 1200.0 mg/kg/injection, schedule: Q03DX Z (ip), vehicle: other): 158 % of control | T/C (dose: 1200.0 mg/kg/injection, schedule: Q## X002 (ip), vehicle: saline): 110 % of control | T/C (dose: 1200.0 mg/kg/injection, schedule: Q## X003 (ip), vehicle: saline): 114 % of control | T/C (dose: 1200.0 mg/kg/injection, schedule: Q## X008 (ip), vehicle: saline): 123 % of control | T/C (dose: 1200.0 mg/kg/injection, schedule: Q## X024 (ip), vehicle: saline): 155 % of control | T/C (dose: 1400.0 mg/kg/injection, schedule: Q01DX001 (ip), vehicle: saline): 115 % of control and 116 % of control | T/C (dose: 1400.0 mg/kg/injection, schedule: Q07DX Z (ip), vehicle: other): 117 % of control | T/C (dose: 1600.0 mg/kg/injection, schedule: Q01DX009 (ip), vehicle: saline): 92 % of control | T/C (dose: 1600.0 mg/kg/injection, schedule: Q01DX Z (oral), vehicle: other): 96 % of control | T/C (dose: 1600.0 mg/kg/injection, schedule: Q01DX Z (oral), vehicle: saline): 98 % of control | T/C (dose: 2048.0 mg/kg/injection, schedule: Q03HX016 (ip), vehicle: saline): 174 % of control | T/C (dose: 2400.0 mg/kg/injection, schedule: Q01DX001 (oral), vehicle: saline): 117 % of control | T/C (dose: 2400.0 mg/kg/injection, schedule: Q01DX001 (sc), vehicle: saline): 115 % of control | T/C (dose: 2400.0 mg/kg/injection, schedule: Q03DX Z (ip), vehicle: other): 151 % of control | T/C (dose: 2400.0 mg/kg/injection, schedule: Q## X002 (ip), vehicle: saline): 107 % of control | T/C (dose: 2400.0 mg/kg/injection, schedule: Q## X024 (ip), vehicle: saline): 153 % of control | T/C (dose: 2800.0 mg/kg/injection, schedule: Q01DX001 (ip), vehicle: saline): 121 % of control | T/C (dose: 2800.0 mg/kg/injection, schedule: Q07DX Z (ip), vehicle: other): 124 % of control | T/C (dose: 3200.0 mg/kg/injection, schedule: Q01DX Z (im), vehicle: saline): 87 % of control

C=CS(=O)(=O)CCOc1ccc(Cl)cc1Cl
T/C (dose: 100.0 mg/kg/injection, schedule: Q01DX009 (ip), vehicle: Klucel (hydroxypropylcellulose) (HPC)): 96 % of control | T/C (dose: 200.0 mg/kg/injection, schedule: Q01DX009 (ip), vehicle: Klucel (hydroxypropylcellulose) (HPC)): 95 % of control
